Activity calls are given as the source filed them. The rule behind the calls is not given here.
Tests used:
[1] = tested on: MOLM-13; experiment: Downregulation of mcl-1 levels in human MOLM-13 cells at 20 to 40 uM incubated for 12 hrs by western blot analysis; type: functional, cell-based; settings: dose 20-40 µM
[2] = tested on: MOLM-13; experiment: Induction of cell cycle arrest in human MOLM-13 cells assessed as sub-G1 phase at 40 uM incubated for 12 hr by propidium iodide based flow cytometry analysis (Rvb= 4.78%); type: functional
[3] = biological target: MAP kinase-interacting serine/threonine-protein kinase 1 (Homo sapiens, UniProt Q9BUB5); experiment: Inhibition of MKN1 (unknown origin) at 1 uM in presence of ATP by HTRF assay
[4] = tested on: MOLM-13; experiment: Antiproliferative activity against human MOLM13 cells assessed as reduction of cell viability incubated for 72 hrs by trypan blue staining based cell counting analysis; type: functional
[5] = tested on: MOLM-13; experiment: Induction of cell cycle arrest in human MOLM-13 cells assessed as sub-G1 phase at 20 uM incubated for 12 hr by propidium iodide based flow cytometry analysis (Rvb= 4.78%); type: functional
[6] = tested on: MOLM-13; experiment: Induction of apoptosis in human MOLM-13 cells assessed as late apoptotic cells at 40 uM incubated for 12 hrs by annexin-V and propidium iodide staining based flow cytometry analysis (reference value: 3.03%); type: functional
[7] = tested on: HL-60; experiment: Antiproliferative activity against human HL-60 cells assessed as reduction of cell viability incubated for 72 hrs by trypan blue staining based cell counting analysis; type: functional
[8] = tested on: MOLM-13; experiment: Induction of apoptosis in human MOLM-13 cells assessed as live cells at 20 uM incubated for 12 hrs by annexin-V and propidium iodide staining based flow cytometry analysis (reference value: 91.49%); type: functional
[9] = tested on: MOLM-13; experiment: Induction of apoptosis in human MOLM-13 cells assessed as live cells at 40 uM incubated for 12 hrs by annexin-V and propidium iodide staining based flow cytometry analysis (reference value: 91.49%); type: functional
[10] = tested on: MOLM-13; experiment: Induction of apoptosis in human MOLM-13 cells assessed as early apoptotic cells at 40 uM incubated for 12 hrs by annexin-V and propidium iodide staining based flow cytometry analysis (reference value: 5.40%); type: functional
[11] = tested on: MOLM-13; experiment: Induction of cell cycle arrest in human MOLM-13 cells assessed as G1 phase at 20 uM incubated for 12 hr by propidium iodide based flow cytometry analysis (Rvb= 51.29%); type: functional
[12] = tested on: MOLM-13; experiment: Induction of apoptosis in human MOLM-13 cells assessed as necrotic cells at 20 uM incubated for 12 hrs by annexin-V and propidium iodide staining based flow cytometry analysis (reference value: 0.06%); type: functional
[13] = tested on: MOLM-13; experiment: Downregulation of cyclin-D1 levels in human MOLM-13 cells at 20 to 40 uM incubated for 12 hrs by western blot analysis; type: functional, cell-based; settings: dose 20-40 µM
[14] = tested on: K562; experiment: Antiproliferative activity against human K562 cells assessed as reduction of cell viability incubated for 72 hrs by trypan blue staining based cell counting analysis; type: functional
[15] = tested on: MOLM-13; experiment: Induction of apoptosis in human MOLM-13 cells assessed as late apoptotic cells at 20 uM incubated for 12 hrs by annexin-V and propidium iodide staining based flow cytometry analysis (reference value: 3.03%); type: functional
[16] = tested on: MOLM-13; experiment: Induction of cell cycle arrest in human MOLM-13 cells assessed as G1 phase at 40 uM incubated for 12 hr by propidium iodide based flow cytometry analysis (Rvb= 51.29%); type: functional
[17] = biological target: T1, Serine/threonine-protein kinase PIM (Homo sapiens) (UniProt P11309+Q9P1W9+Q86V86); experiment: Inhibition of PIM in human MOLM-13 cells assessed as reduction of BAD phosphorylation at 20 to 40 uM incubated for 12 hrs by western blot analysis; type: cell-based; settings: dose 20-40 µM
[18] = tested on: MOLM-13; experiment: Induction of apoptosis in human MOLM-13 cells assessed as early apoptotic cells at 20 uM incubated for 12 hrs by annexin-V and propidium iodide staining based flow cytometry analysis (reference value: 5.40%); type: functional
[19] = tested on: MOLM-13; experiment: Downregulation of c-myc levels in human MOLM-13 cells at 20 to 40 uM incubated for 12 hrs by western blot analysis; type: functional, cell-based; settings: dose 20-40 µM
[20] = tested on: MOLM-13; experiment: Induction of apoptosis in human MOLM-13 cells assessed as necrotic cells at 40 uM incubated for 12 hrs by annexin-V and propidium iodide staining based flow cytometry analysis (reference value: 0.06%); type: functional
[21] = biological target: T1, Serine/threonine-protein kinase PIM (Homo sapiens); experiment: Inhibition of PIM in human MOLM-13 cells assessed as reduction in phosphorylated 4EBP1 at 20 to 40 uM incubated for 12 hrs by western blot analysis; type: cell-based; settings: dose 20-40 µM

T1 sequence (P11309 whole entry, looked up): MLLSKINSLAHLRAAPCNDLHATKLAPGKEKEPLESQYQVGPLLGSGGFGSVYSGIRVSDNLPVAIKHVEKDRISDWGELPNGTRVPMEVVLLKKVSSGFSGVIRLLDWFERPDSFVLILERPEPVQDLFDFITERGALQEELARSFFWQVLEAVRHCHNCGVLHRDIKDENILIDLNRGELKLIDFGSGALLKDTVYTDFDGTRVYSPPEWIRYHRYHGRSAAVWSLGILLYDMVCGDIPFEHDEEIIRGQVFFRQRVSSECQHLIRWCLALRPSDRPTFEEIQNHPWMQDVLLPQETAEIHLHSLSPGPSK
T1 sequence (Q9P1W9 whole entry, looked up): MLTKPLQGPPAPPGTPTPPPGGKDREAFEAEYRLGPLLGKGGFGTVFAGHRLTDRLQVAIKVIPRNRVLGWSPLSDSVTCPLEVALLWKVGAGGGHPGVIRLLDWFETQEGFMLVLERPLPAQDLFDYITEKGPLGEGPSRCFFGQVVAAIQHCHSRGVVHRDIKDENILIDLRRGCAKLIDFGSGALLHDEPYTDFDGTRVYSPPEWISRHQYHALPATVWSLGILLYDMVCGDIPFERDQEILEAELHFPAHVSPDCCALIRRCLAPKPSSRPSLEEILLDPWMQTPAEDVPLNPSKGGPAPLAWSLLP
Sequence of MAP kinase-interacting serine/threonine-protein kinase 1 (Q9BUB5 whole entry, looked up): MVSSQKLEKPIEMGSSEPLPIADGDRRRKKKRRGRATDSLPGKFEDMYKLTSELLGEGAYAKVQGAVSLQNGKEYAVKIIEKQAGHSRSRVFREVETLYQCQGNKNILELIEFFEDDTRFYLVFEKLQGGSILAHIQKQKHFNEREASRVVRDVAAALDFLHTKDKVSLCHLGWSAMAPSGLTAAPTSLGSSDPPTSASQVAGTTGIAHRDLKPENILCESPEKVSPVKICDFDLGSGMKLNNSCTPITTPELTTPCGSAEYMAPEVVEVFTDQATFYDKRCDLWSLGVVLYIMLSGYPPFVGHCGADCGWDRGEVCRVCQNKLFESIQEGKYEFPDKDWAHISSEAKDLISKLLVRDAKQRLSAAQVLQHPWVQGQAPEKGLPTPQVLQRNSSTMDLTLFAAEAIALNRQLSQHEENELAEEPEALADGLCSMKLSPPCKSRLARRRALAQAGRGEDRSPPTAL

- inhibition [3]: 78%
- GI50 [4]: 9.88 µM
- GI50 [7]: 7.26 µM
- GI50 [14]: 28.8 µM
- inhibition [17]: inactive
- inhibition [21]: Active
SMILES: Nc1ncnc2[nH]nc(Nc3ccc(F)cc3)c12
- Activity [1]: Active
- Activity [2]: 12.28%
- Activity [5]: 8.3%
- Activity [6]: 2.73%
- Activity [8]: 86.89%
- Activity [9]: 83.9%
- Activity [10]: 13.19%
- Activity [11]: 65.2%
- Activity [12]: 0.04%
- Activity [13]: Active
- Activity [15]: 3.05%
- Activity [16]: 62.49%
- Activity [18]: 9.93%
- Activity [19]: Active
- Activity [20]: 0.18%
